Data from ChEMBL document CHEMBL4507284, “Data for DCP probe BI-1230” (2021).

Columns and labels:
[1] = molecular target: Serine/threonine-protein kinase VRK2 (Homo sapiens) (UniProt Q86Y07); settings: Compound concentration 1000.0 nM
[2] = molecular target: Serine/threonine-protein kinase Nek3 (Homo sapiens) (UniProt P51956); settings: Compound concentration 1000.0 nM
[3] = molecular target: Aurora kinase A (Homo sapiens) (UniProt O14965); settings: Compound concentration 1000.0 nM
[4] = molecular target: Tyrosine-protein kinase Fes/Fps (Homo sapiens) (UniProt P07332); settings: Compound concentration 1000.0 nM
[5] = molecular target: Dual specificity testis-specific protein kinase 1 (Homo sapiens) (UniProt Q15569); settings: Compound concentration 1000.0 nM
[6] = molecular target: Serine/threonine-protein kinase SIK3 (Homo sapiens) (UniProt Q9Y2K2); settings: Compound concentration 1000.0 nM
[7] = molecular target: Serine/threonine-protein kinase 3 (Homo sapiens) (UniProt Q13188); settings: Compound concentration 1000.0 nM
[8] = molecular target: Serine/threonine-protein kinase tousled-like 2 (Homo sapiens) (UniProt Q86UE8); settings: Compound concentration 1000.0 nM
[9] = molecular target: Serine/threonine-protein kinase PLK3 (Homo sapiens) (UniProt Q9H4B4); settings: Compound concentration 1000.0 nM
[10] = molecular target: Serine/threonine-protein kinase Nek2 (Homo sapiens) (UniProt P51955); settings: Compound concentration 1000.0 nM
[11] = molecular target: Tyrosine-protein kinase JAK1 (Homo sapiens) (UniProt P23458); settings: Compound concentration 1000.0 nM
[12] = molecular target: Cyclin-dependent kinase 2 homolog (Plasmodium falciparum (isolate 3D7)) (UniProt P61075); settings: Compound concentration 1000.0 nM
[13] = molecular target: Death-associated protein kinase 3 (Homo sapiens) (UniProt O43293); settings: Compound concentration 1000.0 nM
[14] = molecular target: Serine/threonine-protein kinase Sgk3 (Homo sapiens) (UniProt Q96BR1); settings: Compound concentration 1000.0 nM
[15] = molecular target: Delta-type opioid receptor (Homo sapiens) (UniProt P41143); settings: Compound concentration 10.0 uM
[16] = molecular target: Phosphatidylinositol 4-phosphate 3-kinase C2 domain-containing subunit beta (Homo sapiens) (UniProt O00750); settings: Compound concentration 1000.0 nM
[17] = molecular target: Vascular endothelial growth factor receptor 1 (Homo sapiens) (UniProt P17948); settings: Compound concentration 1000.0 nM
[18] = molecular target: Serine/threonine-protein kinase WNK3 (Homo sapiens) (UniProt Q9BYP7); settings: Compound concentration 1000.0 nM
[19] = molecular target: Receptor-type tyrosine-protein kinase FLT3 (Homo sapiens) (UniProt P36888); settings: Compound concentration 1000.0 nM
[20] = molecular target: 5-hydroxytryptamine receptor 5A (Homo sapiens) (UniProt P47898); settings: Compound concentration 10.0 uM
[21] = tested on: Epidermal growth factor receptor (Homo sapiens), P00533 [G719S]; settings: Compound concentration 1000.0 nM
[22] = tested on: Receptor-type tyrosine-protein kinase FLT3 (Homo sapiens), P36888 [K663Q]; settings: Compound concentration 1000.0 nM
[23] = molecular target: Casein kinase I isoform alpha-like (Homo sapiens) (UniProt Q8N752); settings: Compound concentration 1000.0 nM
[24] = molecular target: Serine/threonine-protein kinase 32A (Homo sapiens) (UniProt Q8WU08); settings: Compound concentration 1000.0 nM
[25] = molecular target: Citron Rho-interacting kinase (Homo sapiens) (UniProt O14578); settings: Compound concentration 1000.0 nM
[26] = tested on: Fibroblast growth factor receptor 3 (Homo sapiens), P22607 [G697C]; settings: Compound concentration 1000.0 nM
[27] = molecular target: Serine/threonine-protein kinase N2 (Homo sapiens) (UniProt Q16513); settings: Compound concentration 1000.0 nM
[28] = molecular target: Serine/threonine-protein kinase TNNI3K (Homo sapiens) (UniProt Q59H18); settings: Compound concentration 1000.0 nM
[29] = molecular target: Calcium/calmodulin-dependent protein kinase type II subunit delta (Homo sapiens) (UniProt Q13557); settings: Compound concentration 1000.0 nM
[30] = molecular target: Serine/threonine-protein kinase SBK1 (Homo sapiens) (UniProt Q52WX2); settings: Compound concentration 1000.0 nM
[31] = molecular target: Cyclin-dependent kinase 15 (Homo sapiens) (UniProt Q96Q40); settings: Compound concentration 1000.0 nM
[32] = molecular target: Angiopoietin-1 receptor (Homo sapiens) (UniProt Q02763); settings: Compound concentration 1000.0 nM
[33] = molecular target: High affinity nerve growth factor receptor (Homo sapiens) (UniProt P04629); settings: Compound concentration 1000.0 nM
[34] = molecular target: Glycogen synthase kinase-3 alpha (Homo sapiens) (UniProt P49840); settings: Compound concentration 1000.0 nM
[35] = molecular target: Ephrin type-B receptor 2 (Homo sapiens) (UniProt P29323); settings: Compound concentration 1000.0 nM
[36] = molecular target: Serine/threonine-protein kinase 17A (Homo sapiens) (UniProt Q9UEE5); settings: Compound concentration 1000.0 nM
[37] = molecular target: Histamine H2 receptor (Homo sapiens) (UniProt P25021); settings: Compound concentration 10.0 uM
[38] = molecular target: Cyclin-dependent kinase 7 (Homo sapiens) (UniProt P50613); settings: Compound concentration 1000.0 nM
[39] = molecular target: Tyrosine-protein kinase CSK (Homo sapiens) (UniProt P41240); settings: Compound concentration 1000.0 nM
[40] = molecular target: Serine/threonine-protein kinase ULK1 (Homo sapiens) (UniProt O75385); settings: Compound concentration 1000.0 nM
[41] = molecular target: Cyclin-dependent kinase 4 (Homo sapiens) (UniProt P11802); settings: Compound concentration 1000.0 nM
[42] = molecular target: Receptor tyrosine-protein kinase erbB-4 (Homo sapiens) (UniProt Q15303); settings: Compound concentration 1000.0 nM
[43] = molecular target: Mast/stem cell growth factor receptor Kit (Homo sapiens) (UniProt P10721); settings: Compound concentration 1000.0 nM
[44] = molecular target: Mitogen-activated protein kinase kinase kinase 4 (Homo sapiens) (UniProt Q9Y6R4); settings: Compound concentration 1000.0 nM
[45] = molecular target: Macrophage colony-stimulating factor 1 receptor (Homo sapiens) (UniProt P07333); settings: Compound concentration 1000.0 nM

Cyclin-dependent kinase 2 homolog (Plasmodium falciparum (isolate 3D7)), sequence (P61075 whole entry): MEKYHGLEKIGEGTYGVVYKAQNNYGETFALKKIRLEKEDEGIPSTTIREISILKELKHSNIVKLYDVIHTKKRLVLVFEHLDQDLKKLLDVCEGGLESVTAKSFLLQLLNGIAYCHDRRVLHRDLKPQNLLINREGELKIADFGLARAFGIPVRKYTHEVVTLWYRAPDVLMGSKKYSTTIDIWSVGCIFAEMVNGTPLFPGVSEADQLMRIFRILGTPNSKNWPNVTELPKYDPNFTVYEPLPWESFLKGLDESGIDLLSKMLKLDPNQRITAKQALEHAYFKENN
Cyclin-dependent kinase 7 (Homo sapiens), sequence (P50613 whole entry): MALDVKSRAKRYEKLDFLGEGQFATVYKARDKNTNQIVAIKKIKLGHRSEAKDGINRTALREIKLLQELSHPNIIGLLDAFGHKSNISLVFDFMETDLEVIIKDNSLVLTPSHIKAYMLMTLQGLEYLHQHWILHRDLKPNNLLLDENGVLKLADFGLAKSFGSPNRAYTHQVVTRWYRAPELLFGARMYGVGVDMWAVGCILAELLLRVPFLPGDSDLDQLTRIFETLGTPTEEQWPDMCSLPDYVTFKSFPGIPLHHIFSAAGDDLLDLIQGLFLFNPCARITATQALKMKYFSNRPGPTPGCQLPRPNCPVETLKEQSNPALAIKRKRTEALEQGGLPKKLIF
Serine/threonine-protein kinase 3 (Homo sapiens), sequence (Q13188 whole entry): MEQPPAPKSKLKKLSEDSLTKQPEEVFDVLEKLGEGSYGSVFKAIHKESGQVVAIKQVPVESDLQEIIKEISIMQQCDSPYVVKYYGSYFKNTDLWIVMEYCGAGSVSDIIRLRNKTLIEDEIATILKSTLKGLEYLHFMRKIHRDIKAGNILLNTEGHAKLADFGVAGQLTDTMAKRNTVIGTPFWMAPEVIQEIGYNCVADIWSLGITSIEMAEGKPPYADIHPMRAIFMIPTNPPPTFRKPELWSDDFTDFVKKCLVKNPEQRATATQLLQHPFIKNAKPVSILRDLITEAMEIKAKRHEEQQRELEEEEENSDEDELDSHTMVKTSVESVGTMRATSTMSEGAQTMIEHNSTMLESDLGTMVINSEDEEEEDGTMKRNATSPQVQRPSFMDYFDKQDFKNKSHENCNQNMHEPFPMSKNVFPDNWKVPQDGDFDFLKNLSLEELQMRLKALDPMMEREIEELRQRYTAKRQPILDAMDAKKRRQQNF
Receptor tyrosine-protein kinase erbB-4 (Homo sapiens), sequence (Q15303 whole entry): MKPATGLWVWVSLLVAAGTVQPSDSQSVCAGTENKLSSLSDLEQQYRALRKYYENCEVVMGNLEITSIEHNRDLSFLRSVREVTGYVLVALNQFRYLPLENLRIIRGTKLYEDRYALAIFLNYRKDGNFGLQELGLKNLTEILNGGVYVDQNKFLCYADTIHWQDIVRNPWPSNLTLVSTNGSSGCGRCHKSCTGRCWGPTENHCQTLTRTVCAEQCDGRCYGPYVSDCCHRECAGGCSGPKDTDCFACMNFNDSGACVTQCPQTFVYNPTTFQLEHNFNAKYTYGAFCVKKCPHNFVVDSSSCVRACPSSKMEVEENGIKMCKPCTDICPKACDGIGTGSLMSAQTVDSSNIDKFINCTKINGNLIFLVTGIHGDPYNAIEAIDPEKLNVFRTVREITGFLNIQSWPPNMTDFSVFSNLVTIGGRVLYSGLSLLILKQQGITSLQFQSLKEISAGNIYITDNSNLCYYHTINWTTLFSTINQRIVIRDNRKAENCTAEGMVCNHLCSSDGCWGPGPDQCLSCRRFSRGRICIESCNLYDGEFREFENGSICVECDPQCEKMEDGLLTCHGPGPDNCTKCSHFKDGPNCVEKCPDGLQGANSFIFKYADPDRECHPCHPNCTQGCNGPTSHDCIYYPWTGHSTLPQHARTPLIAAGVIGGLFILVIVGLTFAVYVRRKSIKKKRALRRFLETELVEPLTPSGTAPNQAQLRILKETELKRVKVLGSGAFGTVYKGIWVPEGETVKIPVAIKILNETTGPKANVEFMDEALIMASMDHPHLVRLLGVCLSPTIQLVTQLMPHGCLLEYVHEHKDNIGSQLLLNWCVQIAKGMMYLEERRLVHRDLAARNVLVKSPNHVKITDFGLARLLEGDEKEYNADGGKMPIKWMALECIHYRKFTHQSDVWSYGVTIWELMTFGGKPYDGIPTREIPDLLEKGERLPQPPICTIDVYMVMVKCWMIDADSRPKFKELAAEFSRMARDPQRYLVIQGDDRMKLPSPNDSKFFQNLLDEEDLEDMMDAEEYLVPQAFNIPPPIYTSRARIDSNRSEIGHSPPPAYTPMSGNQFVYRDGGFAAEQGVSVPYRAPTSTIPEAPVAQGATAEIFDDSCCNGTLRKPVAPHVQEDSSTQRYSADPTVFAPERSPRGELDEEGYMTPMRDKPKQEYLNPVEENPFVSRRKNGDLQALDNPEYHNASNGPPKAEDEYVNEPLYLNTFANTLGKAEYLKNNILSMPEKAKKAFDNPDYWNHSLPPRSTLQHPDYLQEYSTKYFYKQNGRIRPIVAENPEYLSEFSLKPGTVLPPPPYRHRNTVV
Casein kinase I isoform alpha-like (Homo sapiens), sequence (Q8N752 whole entry, canonical isoform): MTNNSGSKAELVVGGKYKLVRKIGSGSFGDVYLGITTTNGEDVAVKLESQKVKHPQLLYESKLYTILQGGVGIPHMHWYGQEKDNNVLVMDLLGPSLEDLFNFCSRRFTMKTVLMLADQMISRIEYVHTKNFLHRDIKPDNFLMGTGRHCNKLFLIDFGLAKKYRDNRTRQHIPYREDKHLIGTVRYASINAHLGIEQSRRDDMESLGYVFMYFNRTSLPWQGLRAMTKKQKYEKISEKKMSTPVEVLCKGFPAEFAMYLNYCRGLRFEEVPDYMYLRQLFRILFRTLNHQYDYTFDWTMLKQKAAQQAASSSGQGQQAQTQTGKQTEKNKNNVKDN
Fibroblast growth factor receptor 3 (Homo sapiens), P22607 [G697C], sequence (P22607 whole entry G697C): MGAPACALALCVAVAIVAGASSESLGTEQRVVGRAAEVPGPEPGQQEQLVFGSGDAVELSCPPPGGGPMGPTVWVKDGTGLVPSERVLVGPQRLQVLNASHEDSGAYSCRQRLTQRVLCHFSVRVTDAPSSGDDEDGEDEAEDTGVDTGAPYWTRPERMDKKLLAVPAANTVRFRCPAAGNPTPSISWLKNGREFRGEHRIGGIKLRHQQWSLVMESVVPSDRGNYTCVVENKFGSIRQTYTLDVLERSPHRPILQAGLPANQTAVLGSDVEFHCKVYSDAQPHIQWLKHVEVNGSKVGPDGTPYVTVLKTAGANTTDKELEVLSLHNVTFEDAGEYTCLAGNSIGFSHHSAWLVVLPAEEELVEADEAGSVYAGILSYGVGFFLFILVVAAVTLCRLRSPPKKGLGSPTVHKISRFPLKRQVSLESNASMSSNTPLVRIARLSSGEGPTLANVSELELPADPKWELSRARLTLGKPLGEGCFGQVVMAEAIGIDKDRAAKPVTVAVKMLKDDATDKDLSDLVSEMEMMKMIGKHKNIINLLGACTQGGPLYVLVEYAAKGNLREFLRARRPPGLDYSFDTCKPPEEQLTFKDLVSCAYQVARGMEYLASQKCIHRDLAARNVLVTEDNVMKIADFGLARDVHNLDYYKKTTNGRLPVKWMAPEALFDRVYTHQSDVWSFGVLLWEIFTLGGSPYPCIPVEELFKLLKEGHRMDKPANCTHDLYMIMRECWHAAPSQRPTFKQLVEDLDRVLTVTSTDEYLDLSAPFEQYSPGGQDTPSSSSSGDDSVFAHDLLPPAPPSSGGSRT
Cyclin-dependent kinase 15 (Homo sapiens), sequence (Q96Q40 whole entry): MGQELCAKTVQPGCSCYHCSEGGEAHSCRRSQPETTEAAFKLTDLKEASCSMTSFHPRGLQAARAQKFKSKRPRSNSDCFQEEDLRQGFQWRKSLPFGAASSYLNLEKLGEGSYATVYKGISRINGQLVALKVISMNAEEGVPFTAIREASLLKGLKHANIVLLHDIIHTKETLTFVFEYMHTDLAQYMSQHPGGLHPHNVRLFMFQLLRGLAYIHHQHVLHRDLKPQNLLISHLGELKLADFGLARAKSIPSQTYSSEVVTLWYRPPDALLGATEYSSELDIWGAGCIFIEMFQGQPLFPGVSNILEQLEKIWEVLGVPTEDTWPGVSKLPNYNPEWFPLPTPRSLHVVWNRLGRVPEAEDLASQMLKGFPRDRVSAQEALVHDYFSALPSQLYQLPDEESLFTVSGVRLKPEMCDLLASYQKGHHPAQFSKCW
5-hydroxytryptamine receptor 5A (Homo sapiens), sequence (P47898 whole entry): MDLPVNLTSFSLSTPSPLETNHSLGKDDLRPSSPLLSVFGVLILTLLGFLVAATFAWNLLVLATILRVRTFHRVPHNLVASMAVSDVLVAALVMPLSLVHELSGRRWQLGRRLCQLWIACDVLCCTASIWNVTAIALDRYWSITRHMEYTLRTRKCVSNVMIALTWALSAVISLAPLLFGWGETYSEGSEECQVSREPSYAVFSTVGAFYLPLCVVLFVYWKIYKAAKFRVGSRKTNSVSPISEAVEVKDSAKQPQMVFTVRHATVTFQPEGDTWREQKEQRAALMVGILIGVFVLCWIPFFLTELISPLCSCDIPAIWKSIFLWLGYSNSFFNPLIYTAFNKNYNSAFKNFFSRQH
Death-associated protein kinase 3 (Homo sapiens), sequence (O43293 whole entry, looked up): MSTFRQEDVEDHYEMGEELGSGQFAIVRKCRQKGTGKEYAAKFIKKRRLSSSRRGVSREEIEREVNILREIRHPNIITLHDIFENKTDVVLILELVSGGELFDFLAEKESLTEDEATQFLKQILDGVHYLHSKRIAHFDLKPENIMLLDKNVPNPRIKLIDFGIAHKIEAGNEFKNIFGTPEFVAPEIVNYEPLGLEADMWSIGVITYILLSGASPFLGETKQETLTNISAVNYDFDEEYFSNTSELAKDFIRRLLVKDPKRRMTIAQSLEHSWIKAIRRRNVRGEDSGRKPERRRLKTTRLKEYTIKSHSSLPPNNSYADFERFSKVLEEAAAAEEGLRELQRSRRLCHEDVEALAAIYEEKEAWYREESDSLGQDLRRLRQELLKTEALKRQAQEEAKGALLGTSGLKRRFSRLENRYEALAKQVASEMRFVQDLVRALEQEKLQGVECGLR

COc1ccc2c(O[C@@H]3C[C@H]4C(=O)N[C@]5(C(=O)O)CC5/C=C\CCCCC[C@H](NC(=O)OC5CCCC5)C(=O)N4C3)cc(-c3csc(NC(=O)C(C)C)n3)nc2c1C (stereo not given in full) [BI 1230]
inactive: residual activity [1] 79% | residual activity [2] 76% | residual activity [3] 69% | residual activity [4] 100% | residual activity [5] 91% | residual activity [6] 97% | residual activity [7] 86% | residual activity [8] 100% | residual activity [9] 79% | residual activity [10] 94% | residual activity [11] 75% | residual activity [12] 83% | residual activity [13] 100% | residual activity [14] 75% | inhibition [15] 45.8% | residual activity [16] 82% | residual activity [17] 95% | residual activity [18] 100% | residual activity [19] 87% | inhibition [20] 22.1% | residual activity [21] 76% | residual activity [22] 81% | residual activity [23] 100% | residual activity [24] 78% | residual activity [25] 99% | residual activity [26] 88% | residual activity [27] 67% | residual activity [28] 100% | residual activity [29] 100% | residual activity [30] 98% | residual activity [31] 100% | residual activity [32] 100% | residual activity [33] 82% | residual activity [34] 100% | residual activity [35] 98% | residual activity [36] 99% | inhibition [37] 39.4% | residual activity [38] 62% | residual activity [39] 100% | residual activity [40] 93% | residual activity [41] 74% | residual activity [42] 100% | residual activity [43] 72% | residual activity [44] 74% | residual activity [45] 71%

O=C(N[C@H]1CCCCC/C=C\C2C[C@@]2(C(=O)O)NC(=O)[C@@H]2C[C@@H](Oc3ccncc3)CN2C1=O)OC1CCCC1 (stereo not given in full) [BI 1675]
inactive: residual activity [1] 100% | residual activity [2] 100% | residual activity [3] 92% | residual activity [4] 100% | residual activity [5] 97% | residual activity [6] 95% | residual activity [7] 76% | residual activity [8] 100% | residual activity [9] 100% | residual activity [10] 94% | residual activity [11] 89% | residual activity [12] 78% | residual activity [13] 100% | residual activity [14] 100% | inhibition [15] -2.02% | residual activity [16] 84% | residual activity [17] 100% | residual activity [18] 100% | residual activity [19] 100% | inhibition [20] 1.81% | residual activity [21] 63% | residual activity [22] 85% | residual activity [23] 100% | residual activity [24] 89% | residual activity [25] 89% | residual activity [26] 100% | residual activity [27] 75% | residual activity [28] 100% | residual activity [29] 87% | residual activity [30] 100% | residual activity [31] 100% | residual activity [32] 100% | residual activity [33] 100% | residual activity [34] 100% | residual activity [35] 91% | residual activity [36] 100% | inhibition [37] 15.6% | residual activity [38] 71% | residual activity [39] 96% | residual activity [40] 100% | residual activity [41] 100% | residual activity [42] 100% | residual activity [43] 84% | residual activity [44] 91% | residual activity [45] 95%
